# Where two headings read alike, the source gives them in different places.
# Legend:
# EboZ replication = conditions: read-out: IC50, EboZ replication in vitro; cited from earlier work
# [1] = test system: HIV/EBOV-GP pseudotype virus; assay: microbe, parasite or virus in culture; type: cell-based, EBOV Zaire strain; conditions: for inhibition at 25 µM: read-out: Inhibition of pseudotype virus at 25 μM in 293T cells (%) HIV/EBOV-GP
# [2] = test system: HIV/EBOV-GP pseudotype virus; type: cell-based, EBOV Zaire strain
# [3] = test system: HIV/HA(H5) pseudotype virus; assay: microbe, parasite or virus in culture; type: cell-based, influenza virus subtype H5
# [4] = test system: HIV/LASV-GP pseudotype virus; assay: microbe, parasite or virus in culture; type: cell-based, Lassa virus (LASV)
# in vitro [5] = conditions: human
# in vitro [6] = conditions: African green monkey
# [7] = test system: HIV/MARV-GP pseudotype virus; assay: microbe, parasite or virus in culture; type: cell-based, MARV (Lake Victoria strain)
# [8] = test system: recombinant Zaire EBOV expressing green fluorescent protein (GFP-ZEBOV); assay: microbe, parasite or virus in culture; type: cell-based, EBOV (Zaire subtype, 1995 strain)
# [9] = test system: HIV/VSV-G pseudotype virus; assay: microbe, parasite or virus in culture; type: cell-based, vesicular stomatitis virus; conditions: for inhibition at 25 µM: Human immunodeficiency virus 1, HEK-293T, read-out: Inhibition of pseudotype virus at 25 μM in 293T cells (%) HIV/VSV-GP
# [10] = test system: HIV/VSV-G pseudotype virus; type: cell-based, vesicular stomatitis virus
# [11] = test system: HIV/EBOV-GP pseudotype virus; type: cell-based, EBOV Zaire strain; remark: listed apart in the source
# [12] = test system: HIV/EBOV-GP pseudotype virus; assay: microbe, parasite or virus in culture; type: cell-based, EBOV Zaire strain; conditions: Human immunodeficiency virus 1, HEK-293T
# Vero E6 cells = conditions: African green monkey
# EBOV Δmucin GP = type: cell-based; conditions: pH 5
# VSV-G = VSV-G (Vesicular stomatitis Indiana virus, UniProt P03522); type: cell-based; conditions: pH 5
# [13] = Human immunodeficiency virus 1, HEK-293T, read-out: HIV/EBOV-GP IC90 (μM)
# [14] = Human immunodeficiency virus 1, read-out: HIV/HA (H5) IC90 (μM)
# [15] = Human immunodeficiency virus 1, read-out: HIV/LASV-GP IC90 (μM)
# [16] = Human immunodeficiency virus 1, read-out: HIV/MARV-GP IC90 (μM)
# [17] = Zaire ebolavirus, Vero C1008, read-out: Infectious EBOV IC50 (μM)
# [18] = Human immunodeficiency virus 1, HEK-293T
# [19] = Human immunodeficiency virus 1, HEK-293T, read-out: HIV/EBOV-Gp IC90 (μM)
# [20] = Human immunodeficiency virus 1, HEK-293T, read-out: IC90 (μM) against HIV/EBOV-GP
# [21] = Zaire ebolavirus, Vero C1008, 48 h, read-out: GFP-ZEBOV IC50 (μM)
# [22] = Zaire ebolavirus, Vero C1008, 48 h, read-out: GFP-ZEBOV IC90 (μM)
# [23] = read-out: inhibition of infection, Assay 4: compounds pre-incubated with 293T cells at 4° C. before virus
# [24] = read-out: inhibition of HIV/EBOV-GP infection, Assay 3: compounds pre-incubated with the virus for 1 hour at 37° C.
# VSV-G, sequence (P03522 17-511 limits assumed): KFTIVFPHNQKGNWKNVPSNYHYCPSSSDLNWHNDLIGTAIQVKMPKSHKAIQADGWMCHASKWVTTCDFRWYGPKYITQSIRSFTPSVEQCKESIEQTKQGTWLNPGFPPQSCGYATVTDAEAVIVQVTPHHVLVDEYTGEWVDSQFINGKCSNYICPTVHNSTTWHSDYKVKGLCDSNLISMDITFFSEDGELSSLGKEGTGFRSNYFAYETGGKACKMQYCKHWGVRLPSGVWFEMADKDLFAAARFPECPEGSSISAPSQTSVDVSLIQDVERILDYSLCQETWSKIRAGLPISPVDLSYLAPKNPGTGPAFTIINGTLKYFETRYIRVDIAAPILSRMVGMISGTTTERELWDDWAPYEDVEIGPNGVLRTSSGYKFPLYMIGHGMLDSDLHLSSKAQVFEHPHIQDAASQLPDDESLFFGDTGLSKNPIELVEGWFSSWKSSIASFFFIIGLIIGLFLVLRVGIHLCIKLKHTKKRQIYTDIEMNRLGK
compound,measurement,setting,value
"Nc1nccc2c1ncn2[C@@H]1C[C@H](CO)[C@@H](O)[C@H]1O [C-c3Ado, carbocyclic adenosine analog 3-deazaadenosinc]",IC50,EboZ replication,30 µM
CCOc1ccc(NC(=O)CSc2nnc(COc3cccc(N(C)C)c3)n2-c2ccccc2)cc1 [K],"selectivity index, third value column of Table 7 (head only in drawing)",[1],39
same,IC90,[1]; [13],2 µM
same,IC50,"[1]; Human immunodeficiency virus 1, HEK-293T, read-out: antiviral potency, first value column of Table 7 (head only in drawing)",2.5 µM
same,"activity when added after virus infection (+1 h) (""fusion"")",[2],active
same,IC90,[3]; [14],> 50 µM
same,IC90,[4]; [15],> 50 µM
same,CC50,in vitro [5],98 µM
same,CC50,in vitro [6]; Infectious EBOV CC50 (μM),50 µM
same,IC90,[7]; [16],11 µM
same,"cytotoxicity, second value column of Table 7 (head only in drawing)",293T cells; human,98
same,IC50,[8]; [17],2.5 µM
O=[N+]([O-])c1cccc(C2=Nc3ccccc3N=C(c3ccccc3O)C2)c1 [Compound G12],IC50,[1]; [18],> 100 µM
Cc1ccc(N(c2ccc(C)cc2)c2cccnc2)cc1 [H],IC90,[1]; [19],23.5 µM
same,IC90,[1]; [20],23.5 µM
same,inhibition at 25 µM,[1]; [18],100%
same,inhibition at 25 µM,[9],30%
same,CC50,in vitro [5],> 50 µM
same,CC50,in vitro [6]; GFP-ZEBOV CC50 (μM),22.6 µM
same,GFP-ZEBOV percentage in parentheses beside IC90 >25,[8],>25 (59%)
same,IC50,[8]; [21],20 µM
same,IC90,[8]; [22],> 25 µM
COc1ccc(OC)c(NC(=O)CC(c2ccc(OC)cc2OC)S(=O)(=O)c2ccccc2)c1 (centres unmarked) [I],IC90,[1]; [13],2.7 µM
same,"activity when added after virus infection (+1 h) (""fusion"")",[2],active
same,IC90,[3]; [14],> 50 µM
same,IC90,[4]; [15],> 50 µM
same,CC50,in vitro [5],32 µM
same,CC50,in vitro [6]; Infectious EBOV CC50 (μM),40 µM
same,IC90,[7]; [16],2.8 µM
same,IC50,[8]; [17],4.6 µM
COc1ccc(O)c(C2=Nc3ccccc3N=C(C(F)(F)F)C2)c1 [Compound G7],IC50,[1]; [18],85.7 µM
CCCNC(=O)[C@H]1O[C@@H]1C(=O)N[C@H](C(=O)N1CCC[C@H]1C(=O)O)[C@@H](C)CC [CA-074],inhibition of HIV/VSV-G infectivity,[10],not
same,inhibition of HIV/EBOV-GP infection,[11],strongly inhibited
FC(F)C(F)(F)C1=Nc2ccccc2N=C(c2ccccc2)C1 [Compound G],Inhibition of pseudotype virus at 25 μM in 293T cells (%) HIV/EBOV-GP,[1]; 25 μM,96%
same,IC90,[1]; read-out: HIV/EBOV-GP IC90,12.1 µM
same,IC90,[1]; read-out: HIV/EBOV-Gp IC90,12.1 µM
same,IC50,[1]; read-out: IC50,12.1 µM
same,IC90,[1]; read-out: IC90 (μM) against HIV/EBOV-GP,20.1 µM
same,Inhibition of pseudotype virus at 25 μM in 293T cells (%) HIV/VSV-GP,[9]; 25 μM,20%
same,"inhibition, added at time 0 at 0° C. (""binding"")",[2],> 75%
same,IC90,[3]; read-out: HIV/HA (H5) IC90,> 50 µM
same,IC90,[4]; read-out: HIV/LASV-GP IC90,> 50 µM
same,IC90,[7]; read-out: HIV/MARV-GP IC90,10 µM
same,CC50,293T cells,75 µM
same,GFP-ZEBOV percentage in parentheses beside IC90 >25,[8],>25 (70%)
same,IC50,[8]; read-out: GFP-ZEBOV IC50,10 µM
same,IC90,[8]; read-out: GFP-ZEBOV IC90,> 25 µM
same,IC50,[8]; read-out: Infectious EBOV IC50,10 µM
O=C(Nc1ccc(Cl)c(Cl)c1)c1ccc([N+](=O)[O-])o1 [E],IC90,[1]; [19],20.8 µM
same,IC90,[1]; [20],20.8 µM
same,inhibition at 25 µM,[1]; [18],98%
same,inhibition at 25 µM,[9],25%
same,CC50,in vitro [5],54 µM
same,CC50,in vitro [6]; GFP-ZEBOV CC50 (μM),40 µM
same,IC50,[8]; [21],14.5 µM
same,IC90,[8]; [22],20 µM
Cc1cc2c(cc1C)N=C(C(F)(F)F)CC(c1ccc(Cl)cc1)=N2 [Compound G2],IC50,[1]; [18],72.1 µM
N=c1c2c(-c3ccccc3)c(-c3ccccc3)n(Cc3ccco3)c2ncn1CCCn1ccnc1 [F],IC90,[1]; [19],10.9 µM
same,IC90,[1]; [20],10.9 µM
same,inhibition at 25 µM,[1]; [18],98%
same,inhibition at 25 µM,[9],20%
same,inhibition at 10 µM,[12]; [23],> 75%
same,CC50,in vitro [5],25 µM
same,CC50,in vitro [6]; GFP-ZEBOV CC50 (μM),48.5 µM
same,GFP-ZEBOV percentage in parentheses beside IC90 >25,[8],>25 (78%)
same,IC50,[8]; [21],15 µM
same,IC90,[8]; [22],> 25 µM
FC(F)(F)C(F)(F)C1=Nc2cc(Cl)c(Cl)cc2N=C(c2ccccc2)C1 [Compound G4],IC50,[1]; [18],3.7 µM
Cc1ccc(C2=Nc3ccccc3N=C(C(F)(F)F)C2)cc1 [Compound G6],IC50,[1]; [18],75.7 µM
COc1cccc(C(CC(=O)c2ccc(Cl)cc2)C(C#N)C#N)c1 (centres unmarked) [B],IC90,[1]; [19],7.6 µM
same,IC90,[1]; [20],7.6 µM
same,inhibition at 25 µM,[1]; [18],100%
same,inhibition at 25 µM,[9],10%
same,inhibition at 10 µM,[12]; [24],> 75%
same,CC50,in vitro [5],25 µM
same,CC50,in vitro [6]; GFP-ZEBOV CC50 (μM),> 50 µM
same,CC50,Vero E6 cells,51.5 µM
same,IC50,[8]; [21],10 µM
same,IC90,[8]; [22],20 µM
Oc1ccccc1C1=Nc2ccccc2N=C(c2ccco2)C1 [Compound G11],IC50,[1]; [18],> 100 µM
Oc1ccccc1C1=Nc2ccccc2N=C(c2cccs2)C1 [Compound G8],IC50,[1]; [18],> 100 µM
O=c1c2ccccc2nc(/C=C/c2ccc([N+](=O)[O-])o2)n1-c1cccc(C(F)(F)F)c1 [D],IC90,[1]; [19],1.1 µM
same,IC90,[1]; [20],1.1 µM
same,inhibition at 25 µM,[1]; [18],100%
same,inhibition at 25 µM,[9],15%
same,inhibition at 10 µM,[12]; [23],> 75%
same,CC50,in vitro [5],30 µM
same,CC50,in vitro [6]; GFP-ZEBOV CC50 (μM),> 50 µM
same,CC50,Vero E6 cells,62.5 µM
same,GFP-ZEBOV percentage in parentheses beside IC90 >25,[8],>25 (85%)
same,IC50,[8]; [21],15.5 µM
same,IC90,[8]; [22],> 25 µM
Oc1ccccc1C1=Nc2ccccc2N=C(C(F)(F)F)C1 [Compound G5],IC50,[1]; [18],70.7 µM
CC[C@@]1(O)C(=O)OCc2c1cc1n(c2=O)Cc2cc3ccccc3nc2-1 [C],IC90,[1]; [19],0.8 µM
same,IC90,[1]; [20],0.8 µM
same,inhibition at 25 µM,[1]; [18],98%
same,inhibition at 25 µM,[9],0%
same,inhibition at 10 µM,[12]; [24],> 75%
same,CC50,in vitro [5],20 µM
same,CC50,in vitro [6]; GFP-ZEBOV CC50 (μM),29.5 µM
same,IC50,[8]; [21],10 µM
same,IC90,[8]; [22],23.5 µM
COc1ccc(O)c(C2=Nc3ccccc3N=C(c3cccs3)C2)c1 [Compound G10],IC50,[1]; [18],> 100 µM
"CCCN(C)c1c([N+](=O)[O-])cc([N+](=O)[O-])c2cccnc12 [A, 5,7-dinitro-8-[methyl(propyl)amino]quinoline]",IC90,[1]; [19],18.4 µM
same,IC90,[1]; [20],18.4 µM
same,inhibition at 25 µM,[1]; [18],98%
same,inhibition at 25 µM,[9],25%
same,CC50,in vitro [5],30 µM
same,CC50,in vitro [6]; GFP-ZEBOV CC50 (μM),15 µM
same,IC50,[8]; [21],7.5 µM
same,IC90,[8]; [22],10 µM
CC1=CC(c2ccccc2)=Nc2cc3ccccc3cc2N1 [Compound G1],IC50,[1]; [18],88.3 µM
FC(F)(F)C(F)(F)C1=Nc2ccccc2N=C(c2ccccc2)C1 [Compound G3],IC50,[1]; [18],70.9 µM
Bafilomycin,"inhibition of cell-cell fusion, EBOV expressing cells",EBOV Δmucin GP,completely inhibited
same,"inhibition of cell-cell fusion, VSV-G expressing cells",VSV-G,completely inhibited
Oc1ccc(Cl)cc1C1=Nc2ccccc2N=C(c2ccco2)C1 [Compound G9],IC50,[1]; [18],> 100 µM
